{"source": "patent US20240269145A1", "about": "“USE OF INDOLE COMPOUND AS INHIBITORS OF FERROPTOSIS” (MITOIMMUNE THERAPEUTICS INC., priority 2023, published 2024)", "type_in_all_cases": "cell-based", "key": {"[1]": {"system": "MLE-12 cells", "assay": "Cytosolic iron ion accumulation (FerroOrange, flow cytometry) after RSL3", "settings": "MLE-12, 1 μM RSL3, 8 hours", "description": "(§1) To confirm the inhibitory effect against cytosolic iron ion accumulation in lung epithelial cells, 2×10^5 MLE-12 cells were dispensed into each well of a 12-well plate and cultured for 18 to 24 hours. Each well was treated with Example Compound 1 and ferrostatin-1, which were diluted so that their final concentration became 0.01, 0.1, 1, and 10 μM, and culture was performed for 15 minutes. Afterwards, the cells were treated so that the final concentration of RSL3 became 1 μM, and cultured for 8 hours. To confirm the inhibitory effect against cytosolic iron ion accumulation, FerroOrange [DOJINDO; F374] was used. According to the manufacturer's experimental method, FerroOrange was diluted in the cell culture medium so that the final concentration became 1 μM, and the cells were treated therewith and allowed to react for 30 minutes to perform fluorescent staining. The MLE-12 cells fluorescently stained with FerroOrange were detached from the 12-well plate using 0.25% Trypsin-EDTA and transferred to a microtube, and the fluorescence (excitation/absorption 580 nm/543 nm) was measured using BD FACSLyric™ to calculate the rate of change compared to the control group (RSL3 untreated group)."}, "[2]": {"system": "MLE-12 cells", "assay": "Cytosolic ROS (CM-H2DCFDA) after RSL3", "settings": "MLE-12, 1 μM RSL3, 2 hours", "description": "To confirm the protective effect against cytosolic reactive oxygen species in lung epithelial cells, 2×10^5 MLE-12 cells were dispensed into each well of a 12-well plate and cultured for 18 to 24 hours. Each well was treated with Example Compound 1 and ferrostatin-1, which were diluted so that their final concentration became 0.01, 0.1, 1, and 10 μM, and culture was performed for 15 minutes. Afterwards, the cells were treated so that the final concentration of RSL3 became 1 μM, and cultured for 2 hours. To confirm the inhibitory effect against cytosolic reactive oxygen species, CM-H2DCFDA (general oxidative stress indicator) [Invitrogen™; C6827] was used. According to the manufacturer's experimental method, CM-H2DCFDA was diluted in the cell culture medium so that the final concentration became 5 μM, and the cells were treated therewith and allowed to react for 30 minutes to perform fluorescent staining. The MLE-12 cells fluorescently stained with CM-H2DCFDA were detached from the 12-well plate using 0.25% Trypsin-EDTA and transferred to a microtube, and the fluorescence (excitation/absorption 492 to 495 nm/517 to 527 nm) was measured using BD FACSLyric™ to calculate the rate of change compared to the control group."}, "[3]": {"system": "MLE-12 cells", "assay": "Cytosolic lipid ROS (BODIPY 581/591 C11) after RSL3, Experimental Example 3-1", "settings": "MLE-12, 1 μM RSL3, 2 hours; tested 0.01-10 μM", "description": "(§2) Experimental Example 3-1: To confirm the protective effect against cytosolic lipid reactive oxygen species in lung epithelial cells, 2×10^5 MLE-12 cells were dispensed into each well of a 12-well plate and cultured for 18 to 24 hours. Each well was treated with Example Compound 1 and ferrostatin-1, which were diluted so that their final concentration became 0.01, 0.1, 1, and 10 μM, and culture was performed for 15 minutes. Afterwards, the cells were treated so that the final concentration of RSL3 became 1 μM, and cultured for 2 hours. To confirm the inhibitory effect against cytosolic lipid reactive oxygen species, BODIPY™ 581/591 C11 (lipid peroxidation sensor) [Invitrogen™; D3861] was used. According to the manufacturer's experimental method, BODIPY™ 581/591 C11 was diluted in the cell culture medium so that the final concentration became 5 μM, and the cells were treated therewith and allowed to react for 30 minutes to perform fluorescent staining. The MLE-12 cells fluorescently stained with BODIPY™ 581/591 C11 were detached from the 12-well plate using 0.25% Trypsin-EDTA and transferred to a microtube, and the fluorescence (excitation/absorption 500 to 650 nm/510 to 665 nm) was measured using BD FACSLyric™ to calculate the rate of change compared to the control group."}, "[4]": {"system": "MLE-12 cells", "assay": "Mitochondrial iron ion accumulation (Mito-FerroGreen, flow cytometry) after RSL3", "settings": "MLE-12, 1 μM RSL3, 8 hours", "description": "as §1, with “mitochondrial” for “cytosolic”, “Mito-FerroGreen” for “FerroOrange”, “M489]” for “F374]”, “505 nm/535” for “580 nm/543”, “group.” for “group (RSL3 untreated group).”"}, "[5]": {"system": "H9C2 cells", "assay": "Cell death protection by real-time imaging after erastin", "settings": "H9C2, erastin 1 μM, compound 0.1 μM, imaged every 3 hours for 24 hours", "description": "To confirm a cell death protection effect on cardiac cells through images, 2.5×10^5 H9C2 cells were dispensed into each confocal dish and cultured for 2 days. Each dish was treated with Example Compound 1 and ferrostatin-1, which were diluted to a final concentration of 0.1 μM, and culture was performed for 20 minutes. Afterwards, the cells were treated with erastin so that the final concentration became 1 μM, and images were taken using real-time imaging equipment [Nanolive; CX-A] every 3 hours for 24 hours to confirm changes in the H9C2 cells."}, "[6]": {"system": "NIH/3T3 cells", "assay": "Cytosolic lipid ROS after erastin, Experimental Example 3-3", "settings": "NIH/3T3, erastin 3 μM, 6 hr; tested 0.1, 1, 10 μM", "description": "[The source words this procedure for another cell line and says it was used here with some conditions changed.] as §2, with “group. […]” for “group.”"}}}
{"smiles": "O=S1(=O)CCN(Cc2cc(NC3CCOCC3)c3[nH]c(-c4ccccc4)cc3c2)CC1", "note": "[Example 1, 5-[(1,1-dioxido-4-thiomorpholinyl)methyl]-2-phenyl-N-(tetrahydro-2H-pyran-4-yl)-1H-indole-7-amine]", "values": [{"measurement": "concentration at which cytosolic iron ion accumulation was significantly decreased", "setting": "[1]", "result": 0.1, "unit": "µM"}, {"measurement": "concentration at which cytosolic reactive oxygen species were significantly decreased", "setting": "[2]", "result": 0.01, "unit": "µM"}, {"measurement": "concentration at which cytosolic lipid reactive oxygen species were significantly decreased", "setting": "[3]", "result": 0.1, "unit": "µM"}, {"measurement": "concentration at which mitochondrial iron ion accumulation was significantly decreased", "setting": "[4]", "result": 0.01, "unit": "µM"}, {"measurement": "time for which cell death was inhibited", "setting": "[5]", "result": "up to 24 hours"}, {"measurement": "concentration at which cytosolic lipid reactive oxygen species were decreased", "setting": "[6]", "result": 0.1, "unit": "µM"}]}
{"smiles": "CCOC(=O)c1ccc(NC2CCCCC2)c(N)c1", "note": "[Fer-1, ferrostatin-1, reference compound]", "values": [{"measurement": "concentration at which cytosolic iron ion accumulation was significantly decreased", "setting": "[1]", "result": 1, "unit": "µM"}, {"measurement": "concentration at which cytosolic reactive oxygen species were significantly decreased", "setting": "[2]", "result": 0.1, "unit": "µM"}, {"measurement": "concentration at which cytosolic lipid reactive oxygen species were significantly decreased", "setting": "[3]", "result": 0.1, "unit": "µM"}, {"measurement": "concentration at which mitochondrial iron ion accumulation was significantly decreased", "setting": "[4]", "result": 0.1, "unit": "µM"}, {"measurement": "time for which cell death was inhibited", "setting": "[5]", "result": "up to 18 hours"}, {"measurement": "time from which cell death was observed", "setting": "[5]", "result": "≥ 21", "unit": "h"}, {"measurement": "concentration at which cytosolic lipid reactive oxygen species were decreased", "setting": "[6]", "result": 10, "unit": "µM"}]}
